Series [1] is described as follows: In vitro intrinsic clearance in human liver microsomes. In kind it is in vitro ADME. As to conditions: for microsomal CLint: human, liver microsomes, h CLint. For orientation: Microsomes from liver hold many membrane-bound enzymes, among them those of drug oxidation.
A further series can be described thus: Chromatographic LogD7.4. In kind it is physicochemical. The conditions noted are these: pH 7.4; for chromatographic logD: gradient HPLC, Phenomenex Synergi Hydro-RP column; for gLogD7.4: chromatographically determined.
For series [2], the system named is Chloroquine-sensitive NF54 P. falciparum isolate. Kind of series: In vitro antiplasmodial activity, NF54. In kind it is cell-based, Plasmodium falciparum. The conditions noted are these: for IC50: mean from n ≥ 2.
A short description of series [3]: In vitro intrinsic clearance in mouse liver microsomes. The class given is in vitro ADME.
Series [4] can be described thus: Kinetic solubility at pH 6.5 by nephelometry. The class given is physicochemical. The conditions noted are these: pH 6.5 phosphate buffer, 1% DMSO, solubility range by nephelometry.
The subject of series [5] is rat skeletal myoblast L6 cell line. Kind of series: Cytotoxicity, growth inhibition of L6 cells. The conditions noted are these: read-out: L6 IC50, mean from n ≥ 2. In kind it is cell-based.
Where [6] appears, read: Plasmodium falciparum, NF54, read-out: P. falciparum IC50, NF54.
The mark [7] stands for this setting: read-out: P. falciparum IC50, NF54.

Like-named read-outs stand apart in the source and are kept apart here. Some results are limits rather than exact numbers.

As to `O=C1Nc2ccccc2C(=O)CCCc2ccccc21` [Compound 6, 6,7-Dihydrodibenzo[b,h]azecine-8,14(5H,13H)-dione], the microsomal CLint (commonly the rate of metabolic loss divided by the concentration) in series [1] is 14 µL/min/mg; in series [3], 31 µL/min/mg. The chromatographic logD (commonly a lipophilicity value derived from retention on a column) in “Chromatographic LogD7.4” was 1.9. Also, the IC50 (as a rule, the concentration that gives 50% inhibition) in series [2] (setting [6]) was 0.75 µM. Further, the “fold less potent than 2 (antiplasmodial)” value in series [2] (relative to compound 2) amounted to 4 fold.
In the series “Chromatographic LogD7.4”, `O=C1CCOc2ccccc2C(=O)Nc2ccccc21` [Compound 7, 6,7-Dihydro-8H-dibenzo[b,f][1,5]oxazecine-8,14-(13H)-dione] had a gLogD7.4 of 2.0. The IC50 in series [2] (setting [7]) was found to be 21 µM; in series [5] it was 31 µM. In addition, in series [2] (relative to compound 2), the “fold less potent than 2 (antiplasmodial)” value was over 100 fold. Also, in series [4], the “Kinetic Sol6.5” value is over 100 µg/mL.
In the case of `O=C1CCc2ccccc2CC(=O)c2ccccc2N1` [Compound 8, 8,13-Dihydrodibenzo[b,f]azecine-6,14(5H,7H)-dione], the microsomal CLint in series [1] is under 7 µL/min/mg; in series [3], 18 µL/min/mg. For the same compound, in “Chromatographic LogD7.4”, the chromatographic logD is 2.1. Moreover, in series [2] (setting [6]), the IC50 stood at 6.2 µM. The “fold less potent than 2 (antiplasmodial)” value in series [2] (relative to compound 2) turned out to be 33 fold.
`O=C1CCc2ccccc2C(=O)c2ccccc2N1` [Compound 9, 7,8-Dihydro-5H-dibenzo[b,e]azonine-6,13-dione]: the results for the microsomal CLint in series [1] and in series [3] were 7 µL/min/mg and 14 µL/min/mg, respectively. In “Chromatographic LogD7.4”, the chromatographic logD was 1.9. Besides, the IC50 in series [2] (setting [6]) was 4.6 µM.
For `O=C1Nc2ccccc2C(=NO)CCc2ccccc21` [Compound 10, 13-(Hydroxyimino)-5,11,12,13-tetrahydro-6H-dibenzo[b,g]azonin-6-one], the microsomal CLint in series [1] stood at 22 µL/min/mg; in series [3], 76 µL/min/mg. The chromatographic logD in “Chromatographic LogD7.4” was 1.8. Moreover, the IC50 in series [2] (setting [6]) is over 190 µM.
As for `CO/N=C1\CCc2ccccc2C(=O)Nc2ccccc21` [Compound 11, (E)-13-(Methoxyimino)-5,11,12,13-tetrahydro-6H-dibenzo[b,g]azonin-6-one], the microsomal CLint was determined as 11 µL/min/mg in series [1] and 54 µL/min/mg in series [3]. The chromatographic logD in the series “Chromatographic LogD7.4” came out at 2.5. The IC50 in series [2] (setting [6]) came to 95 µM.
The matching figures for `O=C1Nc2ccccc2C(O)CCc2ccccc21` (stereo not shown) [Compound 12, 13-hydroxy-5,11,12,13-tetrahydro-6H-dibenzo[b,g]azonin-6-one]: 11 µL/min/mg, 27 µL/min/mg, 1.5 and 83 µM.
Take `O=C1Nc2ccccc2CCCc2ccccc21` [Compound 13, 5,11,12,13-Tetrahydro-6H-dibenzo[b,g]azonin-6-one]: the microsomal CLint in series [1] was 62 µL/min/mg; in series [3], 81 µL/min/mg. Further, in “Chromatographic LogD7.4”, the chromatographic logD was 2.6. Moreover, the IC50 in series [2] (setting [6]) amounted to 100 µM.
The corresponding values for `CN1C(=O)c2ccccc2CCC(=O)c2ccccc21` [Compound 14, 5-Methyl-11,12-dihydro-5H-dibenzo[b,g]azonine-6,13-dione] are 110 µL/min/mg, 220 µL/min/mg, 2.4 and 77 µM.
On to `O=C1CCc2ccccc2C(=O)N2CCCc3cccc1c32` [Compound 15, 2,3,8,9-Tetrahydro-1H-benzo[7,8]azonino[3,2,1-i,j]-quinoline-7,14-dione], for which, in series [1], the “h CLint” value came out at 310 μL/min/mg protein. Also, the gLogD7.4 in the series “Chromatographic LogD7.4” came to 2.9. Besides, the IC50 was found to be 100 µM in series [2] (setting [7]) and 83 µM in series [5]. Further, in series [4], the “Kinetic Sol6.5” value was in the range of 25 to 50 µg/mL. The “m CLint” value in series [3] is over 870 μL/min/mg protein.
On to `O=C1Oc2ccccc2C(=O)CCc2ccccc21` [Compound 16, 11,12-Dihydrodibenzo[b,g]oxonine-6,13-dione], for which the microsomal CLint stood at 14 µL/min/mg in series [1] and 16 µL/min/mg in series [3]. The chromatographic logD in the series “Chromatographic LogD7.4” was determined as 3.7. In series [2] (setting [6]), the IC50 is 100 µM.
With `COc1ccc2c(c1)C(=O)CCc1ccccc1C(=O)N2` [Compound 17, 2-Methoxy-11,12-dihydro-5H-dibenzo[b,g]azonine-6,13-dione], the microsomal CLint in series [1] amounted to 23 µL/min/mg; in series [3], 440 µL/min/mg. In addition, the chromatographic logD in the series “Chromatographic LogD7.4” was 2.1. Besides, in series [2] (setting [6]), the IC50 amounted to 0.037 µM. In series [2] (relative to compound 2), the “fold more potent than 2 (antiplasmodial)” value is given as “roughly 5 fold”.
Take `O=C(O)c1ccc2c(c1)C(=O)CCc1ccccc1C(=O)N2` [Compound 19, 6,13-Dioxo-6,11,12,13-tetrahydro-5H-dibenzo[b,g]-azonine-2-carboxylic Acid]: the microsomal CLint was 12 µL/min/mg in series [1] and under 7 µL/min/mg in series [3]. Also, the chromatographic logD in “Chromatographic LogD7.4” is under 0. Besides, the IC50 in series [2] (setting [6]) is 160 µM.
The matching figures for `NC(=O)c1ccc2c(c1)C(=O)CCc1ccccc1C(=O)N2` [Compound 20, 6,13-Dioxo-6,11,12,13-tetrahydro-5H-dibenzo[b,g]-azonine-2-carboxamide]: under 7 µL/min/mg, 10 µL/min/mg, 0.8 and 24 µM.
Consider `O=C1Nc2ccc(C(=O)N3CCOCC3)cc2C(=O)CCc2ccccc21` [Compound 21, 2-(Morpholine-4-carbonyl)-11,12-dihydro-5H-dibenzo[b,g]azonine-6,13-dione], for which the values for the microsomal CLint in series [1] and in series [3] were 11 µL/min/mg and 15 µL/min/mg, respectively. Moreover, the chromatographic logD in the series “Chromatographic LogD7.4” worked out at 1.3. The IC50 in series [2] (setting [6]) worked out at 7.8 µM.
`N#Cc1ccc2c(c1)C(=O)CCc1ccccc1C(=O)N2` [Compound 22, 6,13-Dioxo-6,11,12,13-tetrahydro-5H-dibenzo[b,g]-azonine-2-carbonitrile]: the microsomal CLint came out at 23 µL/min/mg in series [1] and 20 µL/min/mg in series [3]. Moreover, the chromatographic logD in “Chromatographic LogD7.4” turned out to be 2.1. In series [2] (setting [6]), the IC50 was found to be 0.7 µM. For the same compound, the “fold less potent than 2 (antiplasmodial)” value in series [2] (relative to compound 2) is 3.7 fold.
Turning to `CS(=O)(=O)c1ccc2c(c1)C(=O)CCc1ccccc1C(=O)N2` [Compound 23, 2-(Methylsulfonyl)-11,12-dihydro-5H-dibenzo[b,g]-azonine-6,13-dione], the microsomal CLint in series [1] was determined as 46 µL/min/mg; in series [3], 19 µL/min/mg. In “Chromatographic LogD7.4”, the chromatographic logD stood at 1.6. In series [2] (setting [6]), the IC50 was found to be 5.3 µM.
The corresponding values for `O=C1Nc2ccc(F)cc2C(=O)CCc2ccccc21` [Compound 24, 2-Fluoro-11,12-dihydro-5H-dibenzo[b,g]azonine-6,13-dione] are 38 µL/min/mg, 74 µL/min/mg, 2.2 and 0.056 µM.
In the case of `O=C1Nc2ccc(C(F)(F)F)cc2C(=O)CCc2ccccc21` [Compound 25, 2-(Trifluoromethyl)-11,12-dihydro-5H-dibenzo[b,g]-azonine-6,13-dione], the microsomal CLint in series [1] is 240 µL/min/mg; in series [3] it was 79 µL/min/mg. In addition, the chromatographic logD in the series “Chromatographic LogD7.4” was determined as 3. Further, in series [2] (setting [6]), the IC50 was 0.0094 µM.
On to `O=C1Nc2ccc(OC(F)(F)F)cc2C(=O)CCc2ccccc21` [Compound 26, 2-(Trifluoromethoxy)-11,12-dihydro-5H-dibenzo-[b,g]azonine-6,13-dione], for which, in series [1], the microsomal CLint came to 240 µL/min/mg. In addition, in “Chromatographic LogD7.4”, the gLogD7.4 is over 3 and the chromatographic logD is 3.1. Moreover, in series [2] (setting [6]), the IC50 worked out at 0.0042 µM. In addition, the “in vitro selectivity index” value in series [2] (antiplasmodial selectivity, L6 cytotoxicity vs P. falciparum) is > 10,000. The compound further yielded a microsomal CLint in series [3] of 110 µL/min/mg.
In turn, `O=C1Nc2ccc(S(F)(F)(F)(F)F)cc2C(=O)CCc2ccccc21` [Compound 27, 2-(Pentafluoro-λ^6-sulfaneyl)-11,12-dihydro-5H-dibenzo[b,g]azonine-6,13-dione] had a microsomal CLint in series [1] of 190 µL/min/mg. Also, in the series “Chromatographic LogD7.4”, the gLogD7.4 is over 3 and the chromatographic logD came out at 3.3. Further, the IC50 in series [2] (setting [6]) stood at 0.0042 µM. Moreover, the microsomal CLint in series [3] came to 71 µL/min/mg.
Consider `O=C1CCc2ncccc2C(=O)Nc2ccccc21` [Compound 30, 12,13-Dihydro-5H-benzo[b]pyrido[2,3-g]azonine-5,11(6H)-dione], for which the microsomal CLint in series [1] was found to be 19 µL/min/mg; in series [3], 18 µL/min/mg. Moreover, in the series “Chromatographic LogD7.4”, the chromatographic logD turned out to be 0.9. For the same compound, the IC50 in series [2] (setting [6]) turned out to be 9.4 µM.
Take `N#Cc1ccc2c(c1)CCC(=O)c1ccccc1NC2=O` [Compound 33, 6,13-Dioxo-6,11,12,13-tetrahydro-5H-dibenzo[b,g]-azonine-9-carbonitrile]: the microsomal CLint in series [1] is under 7 µL/min/mg; in series [3], 160 µL/min/mg. Besides, the chromatographic logD in the series “Chromatographic LogD7.4” amounted to 2. For the same compound, the IC50 in series [2] (setting [6]) was determined as 0.39 µM.
The corresponding values for `O=C1Nc2ccccc2C(=O)CCc2cc(O)ccc21` [Compound 34, 9-Hydroxy-11,12-dihydro-5H-dibenzo[b,g]azonine-6,13-dione] are 61 µL/min/mg, 84 µL/min/mg, 1.1 and 15 µM.
The matching figures for `O=C1CCc2c(O)cccc2C(=O)Nc2ccccc21` [Compound 35, 10-Hydroxy-11,12-dihydro-5H-dibenzo[b,g]azonine-6,13-dione]: 16 µL/min/mg, 60 µL/min/mg, 1.3 and 5.1 µM.
The corresponding values for `O=C1Nc2ccccc2C(=O)CCc2ccc(F)cc21` [Compound 36, 8-Fluoro-11,12-dihydro-5H-dibenzo[b,g]azonine-6,13-dione] are 13 µL/min/mg, 43 µL/min/mg, 2.1 and 1.3 µM.
Regarding `O=C1Nc2ccccc2C(=O)CCc2ccc(O)cc21` [Compound 37, 8-Hydroxy-11,12-dihydro-5H-dibenzo[b,g]azonine-6,13-dione], the results for the microsomal CLint in series [1] and in series [3] were 7 µL/min/mg and 36 µL/min/mg, respectively. Besides, the chromatographic logD in “Chromatographic LogD7.4” is 1.2. For the same compound, the IC50 in series [2] (setting [6]) was found to be 1.1 µM.

The values are drawn from publication PMC10860121 (ACS infectious diseases, 2023).
